Results published in patent US8372876B2, “Method for improving memory in mammals” (The University of Houston System, priority 2007, dated 2013).
“Also recorded” adds a separate entry of the source.

Assays:
Zebrafish (D. rerio) = assay: active-avoidance conditioning in a shuttle box: learning (trials to criteria) and 24 h retention score; format: in vivo
Experimental: Zebrafish (D. rerio) were bred, raised and maintained by the experimenter at the University of Houston Animals Facility. Adult zebrafish are maintained in 2-liter modular aquaria (Marine Biotech) with continuous water exchange at 26-28° C. under 14:10 hours light:dark cycle. Eggs and larvae are maintained in beakers with daily water changes, under the same light:dark cycle and similar temperatures. Larval fish are fed with filtered paramecium. All animals, juvenile (>15 days) and adults are fed three times a day with live brine shrimp or flake. The *AB strain was originally obtained from the University of Oregon. All protocols were approved by the University of Houston Institutional Animal Care Use Committee. Zebrafish are trained on an active-avoidance conditioning paradigm using a modified shuttle box. Zebrafish must cross a hurdle to avoid electric shocks (3V; unconditioned stimulus) administered via electrodes 10 seconds after the onset of the conditioned stimulus which was a dim red light. Dim red lights are placed at the extremity of each compartment of the shuttle box. The light signal was kept on during each cycle lasting for 20 seconds in one compartment; subsequently, the conditioned and unconditioned stimuli changed to the other side of the shuttle box. Zebrafish must learn to escape the dark compartment and maintain in the compartment having the light stimulus on for the remaining trial period. Animals that respond correctly to the light signals in eight out of ten consecutive trials during the training period are designated learners. Training was terminated once Zebrafish achieve the learning criteria (i.e. swimming the compartment where the stimulus light was on and remain there until the light was switched off). […] Animals are tested 24 hours later under identical conditions to test for retention of the learned task. To quantitatively evaluate the ability of each learner to recall the active avoidance conditioning paradigm, a retention score was calculated using the algorithm of Piront and Schmidt [formula] The number of trials required to reach the learning criteria during the test session was subtracted from number of trials required to reach the learning criteria in the training session, divided by the number of trials in the test plus training sessions. Retention scores range from 0 to 1.0. […] Melatonin Blocks Long-Term Memory Formation During the Subjective Day This melatonin effect was tested by taking animals originally under 14:10 hours light:dark cycles and exposing them to constant darkness for 4 days. On the 3rd day of constant darkness and one hour prior to training at CT7 (corresponds to 4 pm) animals were bathed in increasing concentrations of melatonin (1 μM, 10 μM, 50 μM and 100 μM). Animals were then trained at CT8 for active avoidance conditioning and tested 24 hours later on the 4th day of constant darkness at CT8 for long-term memory formation. […] To test whether melatonin blocks long-term memory formation via melatonin receptor mediated signaling pathway, the following experiments were performed. Animals in their original 14:10 hours light:dark cycles were set under free running conditions of constant darkness and temperature (25° C.) for 4 days. […] Treatments comprising of melatonin and either of its antagonists (luzindole or K-185) do improve the retention score, going from 0.1 with melatonin alone to about 0.4 in the presence of a mixture of melatonin and luzindole and to about 0.3 in the presence of a mixture of melatonin and K-185. […] This means that the inhibitory action of melatonin was mediated via a melatonin receptor-signaling pathway. […] This effect was tested by blocking night time melatonin receptor mediated signaling pathways with increased concentrations of melatonin receptor antagonist, such as luzindole. Animals in 14:10 hours light:dark cycles were exposed to constant darkness and temperature (25° C.) for 4 days. […]

C3H/HeN mice = settings: more pronounced effect at midnight than midday; cited from earlier work
[1] = target: T1, MT2 than for MT1 subtypes of melatonin receptors (Homo sapiens, UniProt P49286); settings: MT2 versus MT1 selectivity; cited from earlier work
T1 sequence (P49286 1-362): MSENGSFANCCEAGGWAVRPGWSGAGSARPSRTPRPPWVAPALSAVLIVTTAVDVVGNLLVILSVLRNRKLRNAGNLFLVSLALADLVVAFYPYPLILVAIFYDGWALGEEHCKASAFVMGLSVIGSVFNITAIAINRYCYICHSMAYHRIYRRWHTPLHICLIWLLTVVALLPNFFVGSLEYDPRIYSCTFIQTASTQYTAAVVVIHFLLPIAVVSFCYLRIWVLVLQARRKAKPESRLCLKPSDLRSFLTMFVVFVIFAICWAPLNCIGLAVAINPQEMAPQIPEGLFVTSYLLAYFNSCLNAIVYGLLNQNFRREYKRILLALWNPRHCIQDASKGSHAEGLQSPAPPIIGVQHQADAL

zebrafish embryos = settings: cited from earlier work

SMILES: CC(=O)NCCc1c(Cc2ccccc2)[nH]c2ccccc12 [luzindole, N-Acetyl-2-benzyltryptamine]
- retention score (Zebrafish (D. rerio); 0.5 μM luzindole, 1 h at CT15, trained CT16, tested 24 h later (subjective night), FIG. 4b): less than 0.1
- retention score (Zebrafish (D. rerio); 1 μM luzindole, 1 h at CT15, trained CT16, tested 24 h later (subjective night), FIG. 4b): 0.25
- number of trials to reach learning criteria (Zebrafish (D. rerio); luzindole at increasing concentration, 1 h at CT15, trained CT16 (subjective night), constant darkness, FIG. 4a): No significant difference; also recorded: remains the same
- duration of immobility during swimming (C3H/HeN mice): decreases the duration of immobility during swimming

SMILES: CCCC(=O)NCCc1c2n(c3ccc(OC)cc13)CCCc1ccccc1-2 [K-185, N-butanoyl-2-(5,6,7-trihydro-11-methoxy-benzo[3,4]cyclohept[2,1-a]indol-13-yl) ethanamine]
- higher affinity for MT2 than for MT1 [1]: > 140 fold
- antagonism of the effect of melatonin on zebrafish development (zebrafish embryos): blocking the effect of melatonin on zebrafish development

SMILES: COc1ccc2[nH]cc(CCNC(C)=O)c2c1 [melatonin, 5-OCH3 N-acetyltryptamine]
- retention score (Zebrafish (D. rerio); 100 μM melatonin, 1 h at CT7, trained CT8, tested 24 h later (subjective day), FIG. 2b): significantly reduced
- long-term memory formation (retention score) (Zebrafish (D. rerio); low concentrations of melatonin, 1 h at CT7, tested 24 h after training at CT8): do not significantly block long-term memory formation
- retention score (Zebrafish (D. rerio); melatonin concentration over 50 μM, 1 h at CT7, tested 24 h after training at CT8 (subjective day)): around 0.1
